{"source": "paper PMC2816240", "about": "(European Journal of Nuclear Medicine and Molecular Imaging, 2009)", "key": {"male Wistar rats [1]": {"system": "male Wistar rats", "assay": "Adverse effects of injection in rats", "assay_type": "in vivo", "conditions": "peptide #6 0.2, 1 or 5 mg per rat i.v."}, "male Wistar rats [2]": {"system": "male Wistar rats", "assay_type": "in vivo, rat", "conditions": "20 h post-injection, n = 5 rats, vs PBS"}}, "data": [{"sequence": "ENFVAFVDKCCAADDKEA CFAVEGPKLVVSTQTALA [peptide #6]", "values": [{"measurement": "adverse effects of injection", "setting": "male Wistar rats [1]", "result": "no adverse effects"}, {"measurement": "uptake of 111In-octreotide in the pancreas and other organs", "setting": "male Wistar rats [2]; peptide #6 5 mg i.v.", "result": "unaffected"}, {"measurement": "uptake of 111In-minigastrin and 111In-exendin in organs other than the kidneys", "setting": "male Wistar rats [2]; peptide #6 i.v.", "result": "not affected"}]}]}
